According to patent EP2226070B1, “Process for determining the optimal dosage of antivitamins K in anticoagulant therapy” (Puech, Roger, priority 2009, dated 2010):

Tested on: INR
Assay: Correlation of optimal dosages between different vitamin K antagonists, established with the dosage determination process
Assay type: in vivo, patient
Settings: for dose correspondant à 1/4 de comprimé de "Préviscan" (corrélation proportionnelle entre différents antivitamines K): dose equivalent to 1/4 tablet of Préviscan for the optimal anticoagulant dosage
Excerpt: Ce procédé de détermination est original en ce qu'il comprend les étapes suivantes consistant : • (a) à enregistrer la valeur IO de l'INR optimal cible, • (b) à enregistrer les valeurs d'INR mesurées dans une période donnée T1 à partir d'un surdosage Dmaxi dudit antivitamine K fixé préalablement par le prescripteur au-dessus du dosage préconisé, afin de déterminer une première pente P1 des valeurs d'INR en fonction du temps T1, • (c) à partir de la pente P1, à extrapoler et à enregistrer une valeur Imaxi d'INR théoriquement atteinte à partir du jour où la valeur IO de l'INR cible est atteinte et au bout d'une période déterminée T0, • (d) à enregistrer les valeurs d'INR mesurées dans une période donnée T2 à partir d'un sous-dosage Dmini dudit antivitamine K fixé par le prescripteur au-dessous du dosage préconisé, afin de déterminer une deuxième pente P2 des valeurs d'INR en fonction du temps T2, • (e) à partir de la pente P2, à extrapoler et à enregistrer une valeur Imini d'INR théoriquement atteinte à partir du jour où la valeur IO de l'INR cible est atteinte et au bout de la même période déterminée T0, • (f) à calculer à partir de la différence entre les valeurs Imaxi et Imini d'INR théoriquement calculées, un facteur de correction de posologie dudit antivitamine K exprimé selon la formule suivante : F = (Imaxi -Imini)/(Dmaxi -Dmini) [formula] • (g) afin de déterminer à partir de la différence entre les valeurs I0 de l'INR cible optimal et de l'Imini de l'INR minimum calculé, et dudit facteur F de correction de posologie dudit antivitamine K, la posologie adéquate D0 permettant d'atteindre et de maintenir constante la valeur Io de l'INR cible fixée préalablement selon la relation suivante : D0 = Dmini + (I0 -Imini)/(F). [formula]
C'est aussi à partir de son procédé de détermination de dosage optimal d'un antivitamine K, que le demandeur a pu établir également une corrélation proportionnelle entre différents antivitamines K (1/4 de comprimé de "Préviscan" correspond à 0,82 mg de "Sintrom", à 2 mg de "Coumadine" ou à 0,82 mg de "Apegmone") de sorte qu'à partir d'un dosage optimal d'un antivitamine K prescrit, il peut calculer le dosage optimal d'un autre antivitamine K en remplacement du premier.

Row | Compound | dose correspondant à 1/4 de comprimé de "Préviscan" (corrélation proportionnelle entre différents antivitamines K) | dose de référence de la corrélation proportionnelle entre différents antivitamines K (reference dose of the proportional correlation)
1 | O=c1oc2ccccc2c(O)c1C(CC(O)c1ccc(Cl)cc1)c1ccc(Cl)s1 (stereo not shown) [Apegmone] | 0,82 mg | 
2 | CC(=O)CC(c1ccc([N+](=O)[O-])cc1)c1c(O)c2ccccc2oc1=O (stereo not shown) [Sintrom] | 0,82 mg | 
3 | O=C1c2ccccc2C(=O)C1c1ccc(F)cc1 [Préviscan] |  | 1/4
4 | CC(=O)CC(c1ccccc1)c1c(O)c2ccccc2oc1=O (stereo not shown) [Coumadine] | 2 mg | 
